Laboratory results reported in ChEMBL document CHEMBL5236647, “The discovery of 3,3-dimethyl-1,2,3,4-tetrahydroquinoxaline-1-carboxamides as AMPD2 inhibitors with a novel mechanism of action” (Bioorg Med Chem Lett, 2023).
pIC50: −log10 of the molar value. Active and inactive are the calls of the source. The calls are words filed in the database; no cut-off is given here.

Legend:
[1] = Metabolic stability in mouse liver microsomes assessed as compound remaining at 5 uM after 1 hr; type: ADME, Microsome; conditions: read-out: Stability
AMP deaminase 2 [2] = biological target: T1, AMP deaminase 2 (Homo sapiens, UniProt Q01433); test: Inhibition of recombinant human AMPD2 using AMP as substrate preincubated for 30 mins followed by substrate addition and measured after 30 mins by spectrophotometric analysis
T1 sequence (Q01433 whole entry): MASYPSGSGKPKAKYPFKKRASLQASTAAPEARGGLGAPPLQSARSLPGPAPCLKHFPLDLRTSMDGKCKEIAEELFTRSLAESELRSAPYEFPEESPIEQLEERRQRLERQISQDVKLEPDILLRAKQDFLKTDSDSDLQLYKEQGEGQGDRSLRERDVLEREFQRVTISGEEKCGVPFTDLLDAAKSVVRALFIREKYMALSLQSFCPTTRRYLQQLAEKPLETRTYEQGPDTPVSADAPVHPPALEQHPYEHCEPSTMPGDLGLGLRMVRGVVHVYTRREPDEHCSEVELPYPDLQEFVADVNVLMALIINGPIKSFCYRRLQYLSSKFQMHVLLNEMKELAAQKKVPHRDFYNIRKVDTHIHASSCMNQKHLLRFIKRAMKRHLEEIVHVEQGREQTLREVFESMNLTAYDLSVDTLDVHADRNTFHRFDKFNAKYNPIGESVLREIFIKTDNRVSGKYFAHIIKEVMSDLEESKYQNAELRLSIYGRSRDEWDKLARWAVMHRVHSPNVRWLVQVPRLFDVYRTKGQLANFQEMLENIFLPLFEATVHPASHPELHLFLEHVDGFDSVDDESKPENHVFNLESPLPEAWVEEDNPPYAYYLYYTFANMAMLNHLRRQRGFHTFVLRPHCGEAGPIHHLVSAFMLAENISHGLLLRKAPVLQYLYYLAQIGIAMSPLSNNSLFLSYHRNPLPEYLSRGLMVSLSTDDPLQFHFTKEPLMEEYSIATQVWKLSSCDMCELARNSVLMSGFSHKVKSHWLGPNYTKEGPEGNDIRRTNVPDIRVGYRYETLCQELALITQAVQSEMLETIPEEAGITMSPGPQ

[3] = Ex vivo inhibition of AMPD2 in C57BL/6J mouse liver at 30 mg/kg, po administered for 1 hr; type: functional
AMP deaminase 2 [4] = biological target: T2, AMP deaminase 2 (Mus musculus, UniProt Q9DBT5); test: Inhibition of recombinant mouse AMPD2 using AMP as substrate preincubated for 30 mins followed by substrate addition and measured after 30 mins by spectrophotometric analysis
T2 sequence (Q9DBT5 whole entry): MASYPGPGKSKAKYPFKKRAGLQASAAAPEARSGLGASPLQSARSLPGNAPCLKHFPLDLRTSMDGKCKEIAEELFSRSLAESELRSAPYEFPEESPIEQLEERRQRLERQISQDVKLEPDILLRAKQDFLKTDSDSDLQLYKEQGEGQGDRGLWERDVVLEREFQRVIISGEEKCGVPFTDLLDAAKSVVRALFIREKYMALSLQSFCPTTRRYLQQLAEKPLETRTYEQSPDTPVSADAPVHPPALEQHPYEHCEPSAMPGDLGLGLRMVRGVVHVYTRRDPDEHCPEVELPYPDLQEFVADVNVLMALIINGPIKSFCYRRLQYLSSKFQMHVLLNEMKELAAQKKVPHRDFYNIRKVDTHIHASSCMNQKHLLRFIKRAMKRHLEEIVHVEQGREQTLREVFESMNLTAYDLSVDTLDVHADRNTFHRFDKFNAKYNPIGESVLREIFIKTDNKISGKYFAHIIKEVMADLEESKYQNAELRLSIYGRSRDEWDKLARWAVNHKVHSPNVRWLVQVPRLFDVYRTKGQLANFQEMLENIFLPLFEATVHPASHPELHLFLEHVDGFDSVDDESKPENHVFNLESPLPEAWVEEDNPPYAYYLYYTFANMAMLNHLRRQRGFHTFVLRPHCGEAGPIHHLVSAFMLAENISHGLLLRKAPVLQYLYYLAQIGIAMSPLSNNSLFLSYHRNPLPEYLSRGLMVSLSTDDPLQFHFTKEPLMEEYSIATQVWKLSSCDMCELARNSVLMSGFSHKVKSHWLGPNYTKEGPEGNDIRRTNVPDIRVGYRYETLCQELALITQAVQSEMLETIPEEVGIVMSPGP

[5] = biological target: T3, AMP deaminase 2 (Homo sapiens) (UniProt Q01433); test: Selectivity ratio of IC50 for recombinant human AMPD2 using AMP as substrate incubated for 30 mins by spectrophotometric analysis to IC50 for recombinant human AMPD2 using AMP as substrate preincubated for 30 mins followed by substrate addition and measured after 30 mins by spectrophotometric analysis
T3 sequence (whole entry): T1 sequence (Q01433 whole entry)

AMP deaminase 2 [6] = biological target: T1, AMP deaminase 2; test: Inhibition of recombinant human AMPD2 using AMP as substrate incubated for 30 mins by spectrophotometric analysis
[7] = biological target: T4, AMP deaminase 1 (Homo sapiens) (UniProt P23109); test: Inhibition of AMPD1 (unknown origin) at 100 uM
T4 sequence (whole entry): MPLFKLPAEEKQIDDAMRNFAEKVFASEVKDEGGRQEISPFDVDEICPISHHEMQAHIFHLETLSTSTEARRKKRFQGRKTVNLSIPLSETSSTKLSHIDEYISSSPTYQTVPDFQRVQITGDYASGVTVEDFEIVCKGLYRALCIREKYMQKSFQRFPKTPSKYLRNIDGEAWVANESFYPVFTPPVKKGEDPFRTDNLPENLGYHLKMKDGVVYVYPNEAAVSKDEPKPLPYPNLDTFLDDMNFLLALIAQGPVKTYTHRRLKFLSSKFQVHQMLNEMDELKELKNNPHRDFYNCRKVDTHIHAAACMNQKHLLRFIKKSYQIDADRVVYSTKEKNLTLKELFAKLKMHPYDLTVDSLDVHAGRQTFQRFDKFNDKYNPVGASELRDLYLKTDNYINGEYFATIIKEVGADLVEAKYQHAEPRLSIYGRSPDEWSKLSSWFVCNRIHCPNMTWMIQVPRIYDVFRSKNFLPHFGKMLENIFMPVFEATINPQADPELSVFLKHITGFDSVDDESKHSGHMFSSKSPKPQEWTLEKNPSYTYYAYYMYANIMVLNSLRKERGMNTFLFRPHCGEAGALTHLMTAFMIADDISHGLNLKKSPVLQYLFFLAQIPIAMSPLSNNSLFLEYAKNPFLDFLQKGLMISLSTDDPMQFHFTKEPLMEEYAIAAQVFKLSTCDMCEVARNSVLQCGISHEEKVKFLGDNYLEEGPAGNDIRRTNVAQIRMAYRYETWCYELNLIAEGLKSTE

CC1(C)CN(C(N)=O)c2ccc(F)c(F)c2N1Cc1ccc(COc2ccc(CO)cc2)cc1 gave a remaining at 1 h, 5 µM [1] of 46%, a pIC50 (AMP deaminase 2 [2]) of 7.00 and an inhibition in vivo at 30 mg/kg [3] of 83%. The pIC50 (AMP deaminase 2 [4]) was 6.96.

Compound CC1(C)CN(C(N)=O)c2ccc(F)c(F)c2N1Cc1ccccc1 has a remaining at 1 h, 5 µM [1] of 18%, a Ratio IC50 [5] of 33 and a pIC50 (AMP deaminase 2 [6]) of 5.74. For the same compound, the pIC50 (AMP deaminase 2 [2]) was 7.22, the inhibition in vivo at 30 mg/kg [3] was 71% and the pIC50 (AMP deaminase 2 [4]) was 7.40.

With CC1(C)CN(C(N)=O)c2ccc(F)cc2N1Cc1ccccc1 the Ratio IC50 [5] was 4.6, the pIC50 (AMP deaminase 2 [6]) was 5.29 and the pIC50 (AMP deaminase 2 [2]) was 5.96.

For CC1(C)CN(C(N)=O)c2ccccc2N1Cc1ccccc1, the Ratio IC50 [5] was 11, the pIC50 (AMP deaminase 2 [6]) was 5.52 and the inhibition [7] was “inactive”. For the same compound, the pIC50 (AMP deaminase 2 [2]) was 6.57.

CC(=O)N1CC(C)(C)N(Cc2ccccc2)c2ccccc21 showed a Ratio IC50 [5] of 1.4, a pIC50 (AMP deaminase 2 [6]) of 4.24 and a pIC50 (AMP deaminase 2 [2]) of 4.39.

In the case of CC1(C)CN(C(N)=O)c2ccccc2N1Cc1ccc(Cl)cc1, the Ratio IC50 [5] was 8.9, the pIC50 (AMP deaminase 2 [6]) was 5.77 and the pIC50 (AMP deaminase 2 [2]) was 6.72.

CC1(C)CN(C(N)=O)c2ccc(F)c(F)c2N1Cc1ccc(COc2ccc(C(N)=O)cc2)cc1 gave a remaining at 1 h, 5 µM [1] of 56%, a pIC50 (AMP deaminase 2 [2]) of 6.70 and an inhibition in vivo at 30 mg/kg [3] of 58%.

CC1(C)CN(C(N)=O)c2ccccc2N1Cc1ccc(CCc2ccccc2)cc1 showed a Ratio IC50 [5] of 15, a pIC50 (AMP deaminase 2 [6]) of 5.22 and a pIC50 (AMP deaminase 2 [2]) of 6.39.

Work on CC1(C)CN(C(N)=O)c2ccccc2N1Cc1ccccc1Cl yielded a Ratio IC50 [5] of 1.8, a pIC50 (AMP deaminase 2 [6]) of 4.68 and a pIC50 (AMP deaminase 2 [2]) of 4.92.

For CC1(C)CN(C(N)=O)c2cc(F)ccc2N1Cc1ccccc1, the Ratio IC50 [5] was 8.2, the pIC50 (AMP deaminase 2 [6]) was 5.72 and the pIC50 (AMP deaminase 2 [2]) was 6.62.

Compound Cc1cccc2c1N(Cc1ccccc1)C(C)(C)CN2C(N)=O has a Ratio IC50 [5] of 2.3, a pIC50 (AMP deaminase 2 [6]) of 5.30 and a pIC50 (AMP deaminase 2 [2]) of 5.66.

Compound CC1(C)CN(C(N)=O)c2cc(F)cc(F)c2N1Cc1ccccc1 has a Ratio IC50 [5] of 16, a pIC50 (AMP deaminase 2 [6]) of 5.39 and a pIC50 (AMP deaminase 2 [2]) of 6.59.

Work on CC1(C)CN(C(N)=O)c2ccccc2N1Cc1cccc(CCc2ccccc2)c1 yielded a pIC50 (AMP deaminase 2 [6]) of less than 5.52 and a pIC50 (AMP deaminase 2 [2]) of 6.30.

Work on CC1(C)CN(S(C)(=O)=O)c2ccccc2N1Cc1ccccc1 yielded a pIC50 (AMP deaminase 2 [6]) of less than 4.00.

CC1(C)CN(C(N)=O)c2ccc(F)c(F)c2N1Cc1ccc(COc2ccccc2)cc1 gave a remaining at 1 h, 5 µM [1] of 51%, a pIC50 (AMP deaminase 2 [2]) of 6.89 and an inhibition in vivo at 30 mg/kg [3] of 24%.

In the case of CC1(C)CN(C(N)=O)c2c(F)cccc2N1Cc1ccccc1, the Ratio IC50 [5] was 8, the pIC50 (AMP deaminase 2 [6]) was 5.40 and the pIC50 (AMP deaminase 2 [2]) was 6.30.

With CC1(C)CN(C(N)=O)c2ccccc2N1Cc1ccc(COc2ccccc2)cc1 the Ratio IC50 [5] was 25, the pIC50 (AMP deaminase 2 [6]) was 5.59 and the pIC50 (AMP deaminase 2 [2]) was 6.96.

With CC(=O)Nc1ccc(OCc2ccc(CN3c4c(ccc(F)c4F)N(C(N)=O)CC3(C)C)cc2)cc1 the remaining at 1 h, 5 µM [1] was 34%, the pIC50 (AMP deaminase 2 [2]) was 6.77 and the inhibition in vivo at 30 mg/kg [3] was 19%.

CC1(C)CN(C(N)=O)c2cccc(F)c2N1Cc1ccccc1 showed a Ratio IC50 [5] of 36, a pIC50 (AMP deaminase 2 [6]) of 5.96 and a pIC50 (AMP deaminase 2 [2]) of 7.52.

In the case of CC1(C)CN(C(N)=O)c2ccccc2N1Cc1ccc(OC(F)(F)F)cc1, the Ratio IC50 [5] was 15, the pIC50 (AMP deaminase 2 [6]) was 5.39 and the pIC50 (AMP deaminase 2 [2]) was 6.57.

In the case of CNC(=O)N1CC(C)(C)N(Cc2ccccc2)c2ccccc21, the pIC50 (AMP deaminase 2 [6]) was less than 4.00.

CCC(=O)N1CC(C)(C)N(Cc2ccccc2)c2ccccc21 gave a pIC50 (AMP deaminase 2 [6]) of less than 4.00.

Compound CC1(C)CN(C(N)=O)c2ccccc2N1Cc1ccc(OCc2ccccc2)cc1 has a Ratio IC50 [5] of 4.2, a pIC50 (AMP deaminase 2 [6]) of 5.51 and a pIC50 (AMP deaminase 2 [2]) of 6.13.

Compound CC1(C)CN(C(N)=O)c2cccc(Cl)c2N1Cc1ccccc1 has a Ratio IC50 [5] of 9.2, a pIC50 (AMP deaminase 2 [6]) of 5.77 and a pIC50 (AMP deaminase 2 [2]) of 6.74.

Cc1cccc(CN2c3ccccc3N(C(N)=O)CC2(C)C)c1 gave a Ratio IC50 [5] of 7.5, a pIC50 (AMP deaminase 2 [6]) of 5.64 and a pIC50 (AMP deaminase 2 [2]) of 6.52.

CC1(C)CN(C(N)=O)c2ccccc2N1Cc1cccc(OC(F)(F)F)c1 showed a Ratio IC50 [5] of 9.2, a pIC50 (AMP deaminase 2 [6]) of 5.89 and a pIC50 (AMP deaminase 2 [2]) of 6.85.

Work on Cc1ccc(CN2c3ccccc3N(C(N)=O)CC2(C)C)cc1 yielded a Ratio IC50 [5] of 8.2, a pIC50 (AMP deaminase 2 [6]) of 5.85 and a pIC50 (AMP deaminase 2 [2]) of 6.77.
